The values that follow come from patent EP2058306A1, “Heteroaryl-substituted 2-pyridinyl-methylamine derivatives” (SCHWARZ PHARMA AG, priority 2007, dated 2009).

As usually defined, the Ki is a measure of affinity in units of concentration, obtained from inhibition or displacement.

SMILES strings stand for the structures. Where two headings read alike, the source gives them in different places.

One assay concerns the target T1, dopamine D1 receptor (Sus scrofa, UniProt P50130).
T1 construct: native membrane preparations from porcine striatum; from tissue; host or cells: porcine striatum
As to the kind of experiment: radioligand binding assay, dopamine D1 receptor, [3H]SCH 23390. The following applies: porcine striatum membranes, mean of two to five experiments in triplicate, read-out: Ki D1. The source says:
(§1) Biological activity of the compounds has been determined in radioligand binding assays. These experiments have been done according to methods which are described in literature (Hübner, H. et al., J. Med. Chem. (2000), 43, 7562). For the determination of binding affinity to the receptors of the dopamine D2 family membranes were established carrying the human D2long, D2short, D3 or D4.4 receptor subtype stably expressed in Chinese hamster ovary cell lines. In principle, the binding experiments started when incubating an appropriate amount of membrane with the radioligand [^3H]spiperone and the particular test compounds used in a wide range of different concentrations from subnanomolar up to micromolar ones. In the same way, binding affinities of the test compounds to the dopamine D1 receptor were determined when using native membrane preparations from porcine striatum and the D1 selective radioligand [^3H]SCH 23390.
(§2) The results of the binding experiments are summarized in Table 1 as mean values of two to five individual experiments each done in triplicate and expressed as Ki values in nM.

The next assay deals with human D2long, D2short (Homo sapiens, UniProt P14416). Nature of the assay: biochemical. The following applies: CHO cell membranes, [3H]spiperone; mean of two to five experiments in triplicate; read-out: Ki D2. It is filed as binding. The procedure:
as §1, with “These” for “Biological activity of the compounds has been determined in radioligand binding assays. These”, “ones.” for “ones. In the same way, binding affinities of the test compounds to the dopamine D1 receptor were determined when using native membrane preparations from porcine striatum and the D1 selective radioligand [^3H]SCH 23390.”

For another assay, the target named is human D3 (Homo sapiens, UniProt P35462). Nature of the assay: radioligand binding assay, dopamine D3 receptor, [3H]spiperone. To be noted: CHO cell membranes, mean of two to five experiments in triplicate, read-out: Ki D3. The procedure: as §1, with “These” for “Biological activity of the compounds has been determined in radioligand binding assays. These”, “ones.” for “ones. In the same way, binding affinities of the test compounds to the dopamine D1 receptor were determined when using native membrane preparations from porcine striatum and the D1 selective radioligand [^3H]SCH 23390.”
Chain of human D3 (P35462 whole entry): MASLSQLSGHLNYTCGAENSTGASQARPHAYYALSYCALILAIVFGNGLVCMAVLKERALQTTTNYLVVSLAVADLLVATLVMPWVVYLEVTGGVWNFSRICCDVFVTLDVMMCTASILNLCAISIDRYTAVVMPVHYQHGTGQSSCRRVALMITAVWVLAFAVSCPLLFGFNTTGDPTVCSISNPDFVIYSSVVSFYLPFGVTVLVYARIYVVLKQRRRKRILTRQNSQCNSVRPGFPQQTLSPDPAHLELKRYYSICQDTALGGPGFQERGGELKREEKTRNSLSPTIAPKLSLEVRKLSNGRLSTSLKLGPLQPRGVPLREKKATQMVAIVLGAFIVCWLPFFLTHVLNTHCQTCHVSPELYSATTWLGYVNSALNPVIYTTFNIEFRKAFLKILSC

A further assay concerns the target T2, human D4.4 (Homo sapiens, UniProt P21917).
T2 sequence (P21917 1-419): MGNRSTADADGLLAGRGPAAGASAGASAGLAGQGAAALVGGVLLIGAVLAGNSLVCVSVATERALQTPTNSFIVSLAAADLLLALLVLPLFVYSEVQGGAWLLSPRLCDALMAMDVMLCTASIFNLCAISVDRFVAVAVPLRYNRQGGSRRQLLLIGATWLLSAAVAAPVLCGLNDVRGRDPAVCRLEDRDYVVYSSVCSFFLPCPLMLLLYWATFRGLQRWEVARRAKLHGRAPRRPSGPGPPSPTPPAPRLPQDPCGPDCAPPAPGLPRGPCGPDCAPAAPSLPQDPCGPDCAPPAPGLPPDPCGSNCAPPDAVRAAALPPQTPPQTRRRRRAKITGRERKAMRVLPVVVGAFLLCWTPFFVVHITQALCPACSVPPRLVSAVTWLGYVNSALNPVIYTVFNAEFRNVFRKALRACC
As to the kind of experiment: radioligand binding assay, dopamine D4.4 receptor, [3H]spiperone. To be noted: CHO cell membranes, mean of two to five experiments in triplicate, read-out: Ki D4.4.
Description: as §1, §2

The next assay deals with T3, 5-HT1A (Sus scrofa, UniProt A0A4X1UTF5).
T3 construct: membrane preparations from porcine cortex; from tissue; host or cells: porcine cortex
T3 sequence (A0A4X1UTF5 1-422): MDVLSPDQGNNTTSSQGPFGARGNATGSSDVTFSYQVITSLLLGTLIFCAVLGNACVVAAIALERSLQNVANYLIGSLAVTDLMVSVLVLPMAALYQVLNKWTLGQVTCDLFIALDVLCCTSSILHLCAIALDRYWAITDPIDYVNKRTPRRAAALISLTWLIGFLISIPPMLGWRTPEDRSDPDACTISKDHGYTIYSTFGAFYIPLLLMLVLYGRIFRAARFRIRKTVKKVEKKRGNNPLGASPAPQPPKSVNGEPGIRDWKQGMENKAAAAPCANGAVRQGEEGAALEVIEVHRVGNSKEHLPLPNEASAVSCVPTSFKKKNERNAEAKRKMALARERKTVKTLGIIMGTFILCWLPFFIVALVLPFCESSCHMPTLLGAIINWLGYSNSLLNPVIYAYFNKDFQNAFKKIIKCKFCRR
Nature of the assay: radioligand binding assay, serotonin 5-HT1A receptor, [3H]WAY 100635. The following applies: porcine cortex membranes, mean of two to five experiments in triplicate, read-out: Ki 5-HT1a. The procedure:
(§3) The investigation of receptor binding to the serotonin and adrenergic receptors was done according to a published procedure (Heindl, C. et al., Tetrahedron: Asymmetry (2003), 14, 3141-3152). In detail, for the determination of the binding properties to serotonin receptors membrane preparations from porcine cortex was incubated with the 5-HT1A selective radioligand [^3H]WAY 100635 or with the 5-HT2 selective compound [^3H]ketanserin. The measurement of alpha-1 and alpha-2 receptor binding was achieved when utilizing porcine cortical membranes and the selective radioligands [^3H]prazosin (for alpha-1) and [^3H]RX821002 in an assay similar to that described above.
as §2

For the next assay, the target named is T4, 5-HT2 (Sus scrofa, UniProt P50129).
T4 construct: membrane preparations from porcine cortex; from tissue; host or cells: porcine cortex
T4 sequence (P50129 whole entry): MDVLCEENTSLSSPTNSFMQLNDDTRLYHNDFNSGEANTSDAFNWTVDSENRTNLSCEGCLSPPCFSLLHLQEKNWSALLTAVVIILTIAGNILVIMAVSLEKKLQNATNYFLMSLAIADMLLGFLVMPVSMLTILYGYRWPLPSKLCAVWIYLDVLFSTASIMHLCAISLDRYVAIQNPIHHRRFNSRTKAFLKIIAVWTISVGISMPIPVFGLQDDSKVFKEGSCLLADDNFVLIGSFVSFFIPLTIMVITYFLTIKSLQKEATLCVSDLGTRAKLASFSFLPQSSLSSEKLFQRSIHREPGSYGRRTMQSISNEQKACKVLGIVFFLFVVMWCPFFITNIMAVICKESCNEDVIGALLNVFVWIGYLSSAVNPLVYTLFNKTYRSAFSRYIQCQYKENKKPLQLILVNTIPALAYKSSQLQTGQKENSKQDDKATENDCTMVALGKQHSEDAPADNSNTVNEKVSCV
As to the kind of experiment: radioligand binding assay, serotonin 5-HT2 receptor, [3H]ketanserin. Also noted: species or system porcine.

The next assay deals with alpha-1. Nature of the assay: radioligand binding assay, adrenergic alpha-1 receptor, [3H]prazosin. To be noted: porcine cortical membranes, mean of two to five experiments in triplicate, read-out: Ki alpha1. The procedure:
as §3, §2

The mark [1] stands for this setting: porcine cortex membranes, [3H]ketanserin, mean of two to five experiments in triplicate, read-out: Ki 5-HT2.

Chain of human D2long, D2short (P14416 whole entry): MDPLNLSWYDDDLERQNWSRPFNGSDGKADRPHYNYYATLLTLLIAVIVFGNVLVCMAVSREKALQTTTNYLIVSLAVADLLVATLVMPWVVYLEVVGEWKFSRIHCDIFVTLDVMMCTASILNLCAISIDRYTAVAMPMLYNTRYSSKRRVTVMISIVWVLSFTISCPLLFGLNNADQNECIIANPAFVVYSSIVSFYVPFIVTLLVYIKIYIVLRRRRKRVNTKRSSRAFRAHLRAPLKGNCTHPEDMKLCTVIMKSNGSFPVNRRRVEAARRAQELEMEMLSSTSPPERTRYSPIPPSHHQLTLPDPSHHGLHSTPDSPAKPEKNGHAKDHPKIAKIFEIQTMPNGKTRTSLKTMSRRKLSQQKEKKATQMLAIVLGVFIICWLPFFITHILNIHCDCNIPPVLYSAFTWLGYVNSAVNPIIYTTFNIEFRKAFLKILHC
T1 sequence (P50130 whole entry): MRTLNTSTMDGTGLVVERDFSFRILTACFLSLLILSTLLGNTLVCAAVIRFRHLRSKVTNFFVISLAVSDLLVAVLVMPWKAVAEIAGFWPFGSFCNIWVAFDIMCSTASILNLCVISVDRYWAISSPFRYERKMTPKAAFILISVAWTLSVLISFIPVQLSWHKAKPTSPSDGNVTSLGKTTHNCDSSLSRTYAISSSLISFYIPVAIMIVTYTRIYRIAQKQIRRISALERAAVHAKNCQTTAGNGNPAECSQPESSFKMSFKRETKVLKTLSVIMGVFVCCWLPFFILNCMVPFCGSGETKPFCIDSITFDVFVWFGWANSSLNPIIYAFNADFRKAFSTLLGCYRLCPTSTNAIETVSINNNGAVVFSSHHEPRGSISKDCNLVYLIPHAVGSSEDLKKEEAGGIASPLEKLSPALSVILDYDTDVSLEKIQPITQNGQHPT

`COc1c(C(=O)N2CCC(F)(CNCc3ccc(C)cn3)CC2)csc1Br` [Example E22, 5-Bromo-4-methoxythion-3-yl-[4-fluoro-4-[[(5-methylpyridin-2-ylmethyl)amino]methyl]piperidin-1-yl]-methanone]: the Ki at dopamine D1 receptor was over 5 µM; at human D2long, D2short, over 5 µM; on human D3 it was over 5 µM; at human D4.4, 0.501 to 5 µM; at 5-HT1A it was under 0.05 µM; on 5-HT2, over 5 µM. In addition, the Ki on alpha-1 lay within 0.501 to 5 µM.

With `Cc1ccc(CNCC2(F)CCN(C(=O)c3cc4ccccc4s3)CC2)nc1` [Example E23, Benzo[b]thien-2-yl-[4-fluoro-4-[[(5-methyl-pyridin-2-ylmethyl)amino]methyl]-piperidin-1-yl]-methanone], the Ki at dopamine D1 receptor was over 5 µM; at human D2long, D2short, over 5 µM; at human D3, over 5 µM; on human D4.4 it was 0.501 to 5 µM; on 5-HT1A it was 0.05 to 0.5 µM; at 5-HT2 (setting [1]) it was over 5 µM. Moreover, the Ki at alpha-1 was 0.501 to 5 µM.

In the case of `Cc1ccc(CNCC2(F)CCN(C(=O)c3cc4cc(Br)ccc4s3)CC2)nc1` [Example E24, 5-Bromobenzo[b]thien-2-yl-[4-fluoro-4-[[(5-methylpyridin-2-ylmothyl)amino]methyl]piporidin-1-yl]-methanone], the Ki on dopamine D1 receptor is over 5 µM; on human D2long, D2short, over 5 µM; at human D3, 0.501 to 5 µM; at human D4.4 it was 0.501 to 5 µM; at 5-HT1A, 0.05 to 0.5 µM; at 5-HT2, over 5 µM. Also, the Ki on alpha-1 is 0.05 to 0.5 µM.

Regarding `Cc1ccc(CNCC2(F)CCN(C(=O)c3csc4ccccc34)CC2)nc1` [Example E25, Benzo[b]thien-3-yl-[4-fluoro-4-[[(5-methylpyridin-2-ylmethyl)amino]methyl]piperidin-1-yl]-methanone], the Ki at dopamine D1 receptor is over 5 µM; on human D2long, D2short, over 5 µM; on human D3 it was over 5 µM; at human D4.4, 0.05 to 0.5 µM; at 5-HT1A it was under 0.05 µM; on 5-HT2 (setting [1]), over 5 µM. For the same compound, the Ki at alpha-1 was in the range of 0.501 to 5 µM.

For `Cc1ccc(CNCC2(F)CCN(C(=O)c3cc4sccc4s3)CC2)nc1` [Example E26, [4-Fluoro-4-[[(5-methylpyridin-2-ylmethyl)amino]methyl]piperidin-1-yl]-thieno[3,2-b]thien-2-yl-mothanone], the Ki at dopamine D1 receptor was over 5 µM; at human D2long, D2short, over 5 µM; on human D3, over 5 µM; on human D4.4, 0.501 to 5 µM; on 5-HT1A, under 0.05 µM; at 5-HT2, over 5 µM. The Ki at alpha-1 fell in the range of 0.501 to 5 µM.

Regarding `Cc1ccc(CNCC2(F)CCN(C(=O)c3cc4ccsc4s3)CC2)nc1` [Example E27, [4-Fluoro-4-[[(5-methylpyridin-2-ylmethyl)amino]methyl]piperidin-1-yl]-thieno[2,3-b]thien-2-yl-methanone], the Ki at dopamine D1 receptor is over 5 µM; at human D2long, D2short, over 5 µM; at human D3, over 5 µM; on human D4.4, 0.05 to 0.5 µM; at 5-HT1A it was under 0.05 µM; at 5-HT2 (setting [1]) it was over 5 µM. Further, the Ki at alpha-1 was in the range of 0.501 to 5 µM.

In the case of `Cc1ccc(CNCC2(F)CCN(C(=O)c3sc4sccc4c3Cl)CC2)nc1` [Example E28, 3-Chlorothieno[2,3-b]thion-2-yl-[4-fluoro-4-[[(5-methylpyridin-2-ylmothyl)amino]methyl]piperidin-1-yl]-mothanone], the Ki is over 5 µM at dopamine D1 receptor; 0.501 to 5 µM at human D2long, D2short; 0.501 to 5 µM on human D3; 0.05 to 0.5 µM on human D4.4; under 0.05 µM at 5-HT1A; over 5 µM on 5-HT2. The Ki at alpha-1 was in the range of 0.501 to 5 µM.

For the compound `Cc1ccc(CNCC2(F)CCN(C(=O)c3scc4c3CCCC4)CC2)nc1` [Example E29, [4-Fluoro-4-[[(5-methylpyridin-2-ylmethyl)amino]methyl]pipendin-1-yl]-4,5,6,7-tetrahydrobenzo[c]thien-1-yl-methanone], the inhibition constant (Ki) on dopamine D1 receptor was over 5 µM; on human D2long, D2short, over 5 µM; on human D3, over 5 µM; on human D4.4 it was 0.501 to 5 µM; on 5-HT1A it was under 0.05 µM; on 5-HT2 (setting [1]), over 5 µM. The Ki at alpha-1 lay within 0.501 to 5 µM.
